Measured values: patent publication US20130143855A1, “METHOD TO ALLEVIATE DIABETIC END STAGE RENAL DISEASE” (BOARD OF REGENTS OF THE UNIVERSITY OF TEXAS SYSTEM, priority 2010, published 2013)

Assays:
[1] = system: polyunsaturated fatty acid-induced mitochondrial Ca2+ efflux (PIMCE); conditions: applicant's previous studies, basis of the dose; cited from earlier work
[2] = system: LA-induced [Ca2+]m efflux in kidney mitochondria; assay: Linoleic acid-induced [Ca2+]m efflux in kidney mitochondria; format: in vivo, mouse
Procedure: (§1) Kidney mitochondria were prepared from db/+ or db/db mice and LA-induced [Ca^2+]m and peroxynitrite were assessed as previously described.

[3] = system: db/db mice challenged with high fat diet (HF), ESRD model; assay: Kidney function of HF-fed db/db mice (24 h urinary albumin, urine output, serum creatinine); format: in vivo, mouse
Text: (§2) Male db/db (BKS.Cg-m+/+Lepr^db/J), age and sex matched db/+ mice were acquired from Jackson Laboratories at age of 10 weeks and housed 4/cage or less. Animals were habitat for 2 weeks in a temperature- and humidity-controlled facility with a 12:12-h light-dark cycle, fed ad libitum with RD (7012 Teklad LM-485, Harlan Laboratories) and had free access to water.
(§3) The mice were challenged with HF (60.3% calories from fat, TD.06414, Harlan Laboratories) starting at 12 weeks of age as depicted in FIG. 1A. The HF challenge was divided into two phases: the first phase lasted 2 weeks followed by a 4-week RD feeding. The second phase of HF feeding followed the 4-week RD interval and continued to the end of the experiments (5 weeks). At the beginning of the second HF feeding, db/db mice were randomly divided into 2 groups and intraperitoneally injected with either Saline (vehicle, db/db-HF-S) or 17-DMAG (6.5 μg/Kg bodyweight, db/db-HF-D). The animal protocols were approved by the Institutional Animal Care and Use Committee (0707-001), UT Health Science Center at San Antonio.
Urine collection and other physical parameters were measured following the schedule in FIG. 1A. 24 h urine samples were collected from individual mice and urinary albumin concentration was determined using a murine albumin enzyme-linked immunosorbent assay (Albuwell M Kit; Exocell, Philadelphia, Pa.). Serum creatinine concentrations were determined by the Creatinine Companion kit (Exocell).

hsp90β1 [4] = target: hsp90β1 (Homo sapiens, UniProt P14625); conditions: prolonged treatment of cells; cited from earlier work
Sequence of hsp90β1 (Homo sapiens, UniProt P14625) (P14625 22-803): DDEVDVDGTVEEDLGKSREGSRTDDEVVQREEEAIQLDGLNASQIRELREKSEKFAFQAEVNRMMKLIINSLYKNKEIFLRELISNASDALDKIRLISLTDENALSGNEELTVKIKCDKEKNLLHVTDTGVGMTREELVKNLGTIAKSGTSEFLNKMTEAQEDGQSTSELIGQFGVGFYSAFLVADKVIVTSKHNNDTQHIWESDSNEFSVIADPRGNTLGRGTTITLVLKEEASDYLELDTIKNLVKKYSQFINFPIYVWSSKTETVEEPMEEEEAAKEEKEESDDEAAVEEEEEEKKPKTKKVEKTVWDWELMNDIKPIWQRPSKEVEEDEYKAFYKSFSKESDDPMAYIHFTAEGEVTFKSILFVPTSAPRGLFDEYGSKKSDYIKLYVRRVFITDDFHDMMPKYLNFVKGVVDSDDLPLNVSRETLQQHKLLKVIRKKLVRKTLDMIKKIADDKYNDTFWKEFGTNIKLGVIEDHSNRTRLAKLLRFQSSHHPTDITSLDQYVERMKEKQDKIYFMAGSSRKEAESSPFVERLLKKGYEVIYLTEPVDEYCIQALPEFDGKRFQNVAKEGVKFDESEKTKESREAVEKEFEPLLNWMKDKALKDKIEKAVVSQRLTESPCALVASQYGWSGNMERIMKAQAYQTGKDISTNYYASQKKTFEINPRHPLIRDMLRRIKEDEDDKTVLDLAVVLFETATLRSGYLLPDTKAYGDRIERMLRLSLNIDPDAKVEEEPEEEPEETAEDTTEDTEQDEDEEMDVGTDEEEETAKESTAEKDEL

hsp90β1 [5] = target: T1, hsp90β1 (Mus musculus, UniProt P08113); assay: Western blot of hsp90β1 in kidney homogenate and isolated kidney mitochondria; format: in vivo; conditions: db/db-HF-D vs db/db-HF-S, daily injection
T1 construct: We measured the effect of daily 17-DMAG injection on hsp90β1 levels in the kidney of db/db-HF mice; from tissue; host or cells: kidney homogenate and isolated kidney mitochondria of HF-fed db/db mice
T1 sequence (P08113 22-802): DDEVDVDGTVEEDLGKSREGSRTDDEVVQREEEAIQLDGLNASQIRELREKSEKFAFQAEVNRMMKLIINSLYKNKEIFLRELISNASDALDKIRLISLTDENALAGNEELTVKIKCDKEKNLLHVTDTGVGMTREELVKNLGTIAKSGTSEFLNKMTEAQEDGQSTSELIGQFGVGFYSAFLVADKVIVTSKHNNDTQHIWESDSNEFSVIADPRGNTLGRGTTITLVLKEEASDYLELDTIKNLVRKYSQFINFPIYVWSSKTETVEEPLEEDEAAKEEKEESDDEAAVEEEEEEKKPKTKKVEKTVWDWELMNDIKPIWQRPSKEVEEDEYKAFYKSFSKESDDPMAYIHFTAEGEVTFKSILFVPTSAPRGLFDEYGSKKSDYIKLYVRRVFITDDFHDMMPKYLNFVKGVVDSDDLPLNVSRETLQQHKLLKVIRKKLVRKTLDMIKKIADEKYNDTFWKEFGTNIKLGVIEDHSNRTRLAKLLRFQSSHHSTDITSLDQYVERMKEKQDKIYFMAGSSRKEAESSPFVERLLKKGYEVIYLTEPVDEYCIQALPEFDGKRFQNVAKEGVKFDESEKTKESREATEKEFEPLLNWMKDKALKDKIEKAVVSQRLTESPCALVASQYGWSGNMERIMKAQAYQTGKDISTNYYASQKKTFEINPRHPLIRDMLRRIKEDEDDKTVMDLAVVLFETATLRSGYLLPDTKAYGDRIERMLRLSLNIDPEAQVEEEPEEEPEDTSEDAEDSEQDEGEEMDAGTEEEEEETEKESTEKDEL
Procedure: (§4) Western blot or immunochemistry was performed with polyclonal (pAb) and/or monoclonal (mAb) primary antibodies to detect hsp90β1 and 3-NT levels as previously described. The primary antibodies used in western blots were as follows: mAb anti-3-NT (1:1000, clone 1A6, Millipore); rabbit pAb anti-3-NT (1:1000, Millipore); pAb anti-GRP94 (1:1000, Santa Cruz Biotechnology), mAb anti-Complex 1 (1:2000) and mAb anti-α-tubulin (1:1000). For the immunochemistry staining with mouse antibody, a specific procedure was performed as previously described to eliminate the direct interaction between antigen and secondary antibody.

[6] = system: HF-fed db/db mice with ESRD; assay: Kaplan-Meyer survival analysis of HF-fed mice; format: in vivo, mouse
Text: as §3
Results presented as mean±S.E and Student's t-test was used to evaluate the differences between two groups. Kaplan-Meyer survival analysis was performed using the log-rank statistic to test for a significant difference among the survival curves. Differences were considered statistically significant at P<0.05.

[7] = system: 3-nitrotyrosine (3-NT) in kidney; assay: 3-NT levels in kidney by western blot and immunochemistry; format: in vivo, mouse; conditions: db/db-HF-D vs db/db-HF-S
Procedure: as §4

[8] = system: kidney glomeruli and tubules of HF-fed db/db mice; assay: Kidney histopathology (HE, PAS, Masson's trichrome) of HF-fed mice; format: in vivo, mouse
Text: as §2, §3
Formalin-fixed, paraffin-embedded kidney sections were stained with haematoxylin and eosin (HE), periodic acid-Schiff (PAS), or Masson's trichrome and analyzed to evaluate kidney damages in a blinded manner. The area of glomerular PAS staining was measured by image analysis using Image-Pro Plus 4.5 (Media Cybernetics, Silverspring, Md.). A semi-quantitative assessment was performed in HE stained slides to evaluate the extent of tubular damage and graded from 1 to 5 as follows: 1: vacuolation of cytoplasm in <20% of tubules; 2: vacuoles in 20% to 40% of tubules; 3: vacuoles in 40% to 60% tubules with minimal distortion of tubular structures; 4: vacuoles in 60% to 80% of tubules with large and marked distortion of tubular profiles, pyknotic nuclei, patches of tubular atrophy and tubular degeneration; and 5: >80% of tubules with severe vacuolation, or tubular atrophy and degeneration. The fractal collagen volume was assessed by point counter grid using ImageJ (NIH) program to quantify the blue stain in the trichrome-stained sections.

[9] = system: peroxynitrite generation in kidney mitochondria; assay: Linoleic acid-induced peroxynitrite generation in kidney mitochondria; format: in vivo, mouse; conditions: db/db-HF-D; did not reach statistical significance; FIG. 4F
Procedure: as §1

[10] = db/db-HF-D vs db/db-HF-S, FIG. 2G/2H

## 17-dimethylaminoethylamino-17-demethoxygeldanamycin [17-DMAG]
[1]
  inhibition on PIMCE: maximal inhibition
  toxicity to cells: did not produce apparent toxicity
[2]; db/db-HF-D vs db/+
  rate and amplitude of LA-induced [Ca2+]m signal, difference between db/db-HF-D and db/+ groups: no significant differences
[2]; db/db-HF-D vs db/db-HF-S, FIG. 4C-E
  LA-induced [Ca2+]m efflux in kidney mitochondria: significantly diminished
[2]; db/db-HF-D vs db/db-HF-S, FIG. 4D, 4E
  rate and amplitude of LA-induced [Ca2+]m responses: effectively attenuated
[3]; db/db-HF-D (6.5 μg/kg i.p. daily) vs db/db-HF-S, from 17th day of second HF feeding, FIG. 1E
  24 h urine output: significantly preserved
[3]; db/db-HF-D (6.5 μg/kg i.p. daily, second HF challenge) vs db/db-HF-S, FIG. 1D
  24 h urinary albumin excretion (albuminuria): significantly diminished
[3]; db/db-HF-D, 6.5 μg/kg i.p. daily
  serum creatinine, difference between db/db-HF-D and db/+ groups: no significant difference
[3]; db/db-HF-D, 6.5 μg/kg i.p. daily, FIG. 1F
  serum creatinine compared to db/db-HF-S group: significantly lowered
hsp90β1 [4]
  degradation and downregulation of hsp90β1: caused degradation and downregulation
hsp90β1 [5]; FIG. 4A
  hsp90β1 levels in kidney homogenates: similar
hsp90β1 [5]; FIG. 4B
  hsp90β1 levels in isolated kidney mitochondria: significantly reduced
[6]; db/+-HF-S and db/+-HF-D groups
  mortality in HF-fed db/+ mice: no mortality
[6]; db/db-HF-D vs db/db-HF-S, log-rank, FIG. 3
  survival rate: significantly improved
[7]; FIG. 5C-E
  3-NT in kidney sections by immunohistochemistry: effectively reduced
[7]; kidney homogenates, FIG. 5A
  3-NT level, bands with MW<50kDa, western blot with polyclonal anti-3-NT antibody: significant 3-NT level reduction
[7]; kidney homogenates, FIG. 5B
  3-NT levels in proteins <50 kDa, western blot with monoclonal antibody: significantly lowered
[8]; HF-fed db/+ mice treated with 17-DMAG, FIG. 2B
  glomerular and tubular abnormalities in HF-fed db/+ mice: did not exhibit any glomerular and tubular abnormalities
[8]; db/db-HF-D group (also in db/db-HF-S)
  tubular vacuolation: evidenced
[8]; db/db-HF-D vs db/db-HF-S, FIG. 2C/2D
  segmental glomerulosclerosis (HE staining, 100×): largely prevented
[8]; db/db-HF-D vs db/db-HF-S, FIG. 2E/2F
  tubular atrophy and degeneration (HE staining): dramatic protection
[8]; [10]
  segmental glomerulosclerosis and mesangial matrix expansion (PAS, 200×), glomerular lesions: amiiorated
  tubulointerstitial fibrosis (PAS-stained tubulointerstitium): largely prevented
[8]; db/db-HF-D vs db/db-HF-S, FIG. 2I/2J
  accumulation of tubulointerstitial collagen (Masson's trichrome): effectively reduced
[8]; db/db-HF-D vs db/db-HF-S, FIG. 2K
  tubular damage (index, morphometric quantification): significant alleviation
[8]; db/db-HF-D vs db/db-HF-S, FIG. 2L
  mesangial matrix expansion (morphometric quantification): significant alleviation
[8]; db/db-HF-D vs db/db-HF-S, FIG. 2M
  collagen accumulation (morphometric quantification): significant alleviation
[9]
  LA-induced peroxynitrite generation: attenuated
